Experimental data taken from ChEMBL document CHEMBL1155486, “From 6-aminoquinolone antibacterials to 6-amino-7-thiopyranopyridinylquinolone ethyl esters as inhibitors of Staphylococcus aureus multidrug efflux pumps” (2010).
In brackets after ≈: the same amount, converted by molar mass.

Assays:
Staphylococcus aureus [1] = assay: Antibacterial activity against Staphylococcus aureus SA-1199B by EtBr efflux assay; type: functional
[2] = molecular target: T1, Quinolone resistance protein NorA (Staphylococcus aureus) (UniProt P0A0J7); assay: Inhibition of NorA in Staphylococcus aureus SA-1199B assessed as reduction in ethidium bromide efflux at 50 uM by fluorimetry; parameters: scale not given: the % may be the effect or the level left
T1 sequence (whole entry): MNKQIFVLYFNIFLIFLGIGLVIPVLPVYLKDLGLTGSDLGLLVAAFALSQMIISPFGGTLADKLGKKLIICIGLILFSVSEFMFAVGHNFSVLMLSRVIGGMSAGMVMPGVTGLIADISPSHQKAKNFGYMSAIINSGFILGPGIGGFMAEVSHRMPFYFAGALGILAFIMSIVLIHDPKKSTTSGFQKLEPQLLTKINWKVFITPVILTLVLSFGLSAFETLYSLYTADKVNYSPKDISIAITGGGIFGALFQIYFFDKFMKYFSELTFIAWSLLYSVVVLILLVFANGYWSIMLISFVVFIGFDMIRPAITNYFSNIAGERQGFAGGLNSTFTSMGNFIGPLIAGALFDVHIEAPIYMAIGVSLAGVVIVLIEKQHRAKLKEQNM

Staphylococcus aureus [3] = assay: Antibacterial activity against wild-type norA expressing Staphylococcus aureus SA-1199 by microdilution technique; type: functional
Staphylococcus aureus [4] = assay: Antibacterial activity against Staphylococcus aureus K1134 bearing wild-type GyrA and S80Y mutant GrlA by microdilution technique; type: functional
Staphylococcus aureus [5] = assay: Antibacterial activity against Staphylococcus aureus K1035 bearing wild-type GyrA and S80F mutant GrlA by microdilution technique; type: functional
Staphylococcus aureus [6] = assay: Antibacterial activity against Staphylococcus aureus SA-1199B norA++ and A116E GrlA mutation by microdilution technique; type: functional
Staphylococcus aureus [7] = assay: Antibacterial activity against Staphylococcus aureus K1640 bearing S84L mutant GyrA and S80Y mutant GrlA by microdilution technique; type: functional
Staphylococcus aureus [8] = assay: Antibacterial activity against Staphylococcus aureus SA-K1902 bearing norA- deficient mutation by microdilution technique; type: functional
Staphylococcus aureus [9] = assay: Antibacterial activity against Staphylococcus aureus K1628 bearing S84L mutant GyrA and S80F mutant GrlA by microdilution technique; type: functional
Staphylococcus aureus [10] = assay: Antibacterial activity against Staphylococcus aureus ATCC 25923 by microdilution technique; type: functional
Staphylococcus aureus [11] = assay: Antibacterial activity against methicillin and ciprofloxacin-resistant Staphylococcus aureus 25A by microdilution technique; type: functional
Escherichia coli = assay: Antibacterial activity against Escherichia coli ATCC 25922 by microdilution technique; type: functional
Staphylococcus aureus [12] = assay: Antibacterial activity against Staphylococcus aureus K1305 bearing wild-type GyrA and E84K mutant GrlA by microdilution technique; type: functional
Staphylococcus aureus [13] = assay: Antibacterial activity against Staphylococcus aureus SA-K1904 bearing norA++ efficient mutation by microdilution technique; type: functional

CCOC(=O)c1cn(C2CC2)c2cc(N3CCC4=C(C3)C(O)CCS4)c(N)cc2c1=O (stereo not given)
MIC (Staphylococcus aureus [1]): > 100 µg/mL | Activity [2]: 26.3%

COC(=O)[C@H]1[C@H]2C[C@@H]3c4[nH]c5cc(OC)ccc5c4CCN3C[C@H]2C[C@@H](OC(=O)c2cc(OC)c(OC)c(OC)c2)[C@@H]1OC
Activity [2]: 84.8%

CC1CSC2=C(CN(c3cc4c(cc3F)c(=O)c(C(=O)O)cn4C3CC3)CC2)/C1=N/O (stereo not given)
MIC (Staphylococcus aureus [3]): 0.16 µg/mL (≈ 0.361 µM) | MIC (Staphylococcus aureus [4]): 1.25 µg/mL (≈ 2.82 µM) | MIC (Staphylococcus aureus [5]): 1.25 µg/mL (≈ 2.82 µM) | MIC (Staphylococcus aureus [6]): 0.31 µg/mL (≈ 0.699 µM) | MIC (Staphylococcus aureus [7]): > 10 µg/mL | MIC (Staphylococcus aureus [8]): 0.16 µg/mL (≈ 0.361 µM) | MIC (Staphylococcus aureus [9]): > 10 µg/mL | MIC (Staphylococcus aureus [10]): 0.31 µg/mL (≈ 0.699 µM) | MIC (Staphylococcus aureus [11]): 4 µg/mL (≈ 9.02 µM) | MIC (Escherichia coli): 32 µg/mL (≈ 72.2 µM) | MIC (Staphylococcus aureus [12]): 1.25 µg/mL (≈ 2.82 µM) | MIC (Staphylococcus aureus [13]): 0.31 µg/mL (≈ 0.699 µM)

Nc1cc2c(=O)c(C(=O)O)cn(C3CC3)c2cc1N1CCC2=C(C1)C(O)CCS2 (stereo not given)
MIC (Staphylococcus aureus [3]): 25 µg/mL (≈ 60.5 µM) | MIC (Staphylococcus aureus [6]): > 100 µg/mL | MIC (Staphylococcus aureus [8]): 12.5 µg/mL (≈ 30.2 µM) | MIC (Staphylococcus aureus [10]): 16 µg/mL (≈ 38.7 µM) | MIC (Staphylococcus aureus [11]): 128 µg/mL (≈ 310 µM) | MIC (Escherichia coli): 128 µg/mL (≈ 310 µM) | MIC (Staphylococcus aureus [13]): 25 µg/mL (≈ 60.5 µM)

Cc1c(N2CCC3=C(C2)C(O)CCS3)c(N)cc2c(=O)c(C(=O)O)cn(C3CC3)c12 (stereo not given)
MIC (Staphylococcus aureus [3]): > 100 µg/mL | MIC (Staphylococcus aureus [6]): > 100 µg/mL | MIC (Staphylococcus aureus [8]): > 100 µg/mL | MIC (Staphylococcus aureus [10]): > 128 µg/mL | MIC (Staphylococcus aureus [11]): > 128 µg/mL | MIC (Escherichia coli): > 128 µg/mL | MIC (Staphylococcus aureus [13]): > 100 µg/mL

Cc1c(N2CCC3=C(C2)/C(=N/O)CCS3)c(N)cc2c(=O)c(C(=O)O)cn(C3CC3)c12
MIC (Staphylococcus aureus [3]): 0.63 µg/mL (≈ 1.43 µM) | MIC (Staphylococcus aureus [6]): 2.5 µg/mL (≈ 5.68 µM) | MIC (Staphylococcus aureus [8]): 0.63 µg/mL (≈ 1.43 µM) | MIC (Staphylococcus aureus [10]): 0.31 µg/mL (≈ 0.704 µM) | MIC (Escherichia coli): 0.5 µg/mL (≈ 1.14 µM) | MIC (Staphylococcus aureus [13]): 0.63 µg/mL (≈ 1.43 µM)

CCOC(=O)c1cn(C2CC2)c2c(C)c(N3CCC4=C(C3)C(=O)C(C)CS4)c(N)cc2c1=O (stereo not given)
MIC (Staphylococcus aureus [1]): > 100 µg/mL | Activity [2]: 50.5%

CCOC(=O)c1cn(C2CC2)c2c(C)c(N3CCC4=C(C3)C(O)CCS4)c(N)cc2c1=O (stereo not given)
MIC (Staphylococcus aureus [1]): > 100 µg/mL | Activity [2]: 47.3%

O=C(O)c1cn(C2CC2)c2cc(N3CCC4=C(C3)C(O)CCS4)c(F)cc2c1=O (stereo not given)
MIC (Staphylococcus aureus [3]): 0.04 µg/mL (≈ 0.096 µM) | MIC (Staphylococcus aureus [4]): 1.25 µg/mL (≈ 3 µM) | MIC (Staphylococcus aureus [5]): 0.63 µg/mL (≈ 1.51 µM) | MIC (Staphylococcus aureus [6]): 0.16 µg/mL (≈ 0.384 µM) | MIC (Staphylococcus aureus [7]): > 10 µg/mL | MIC (Staphylococcus aureus [8]): 0.04 µg/mL (≈ 0.096 µM) | MIC (Staphylococcus aureus [9]): > 10 µg/mL | MIC (Staphylococcus aureus [10]): 0.08 µg/mL (≈ 0.192 µM) | MIC (Staphylococcus aureus [11]): 8 µg/mL (≈ 19.2 µM) | MIC (Escherichia coli): 64 µg/mL (≈ 154 µM) | MIC (Staphylococcus aureus [12]): 0.63 µg/mL (≈ 1.51 µM) | MIC (Staphylococcus aureus [13]): 0.16 µg/mL (≈ 0.384 µM)

Nc1cc2c(=O)c(C(=O)O)cn(C3CC3)c2cc1N1CCC2=C(C1)/C(=N/O)CCS2
MIC (Staphylococcus aureus [3]): 1.56 µg/mL (≈ 3.66 µM) | MIC (Staphylococcus aureus [6]): 12.5 µg/mL (≈ 29.3 µM) | MIC (Staphylococcus aureus [8]): 1.56 µg/mL (≈ 3.66 µM) | MIC (Staphylococcus aureus [10]): 2 µg/mL (≈ 4.69 µM) | MIC (Staphylococcus aureus [11]): 16 µg/mL (≈ 37.5 µM) | MIC (Escherichia coli): 2 µg/mL (≈ 4.69 µM) | MIC (Staphylococcus aureus [13]): 6.25 µg/mL (≈ 14.7 µM)

CO/N=C1/C2=C(CCN(c3cc4c(cc3F)c(=O)c(C(=O)O)cn4C3CC3)C2)SCC1C (stereo not given)
MIC (Staphylococcus aureus [3]): 2.5 µg/mL (≈ 5.46 µM) | MIC (Staphylococcus aureus [6]): 5 µg/mL (≈ 10.9 µM) | MIC (Staphylococcus aureus [8]): 2.5 µg/mL (≈ 5.46 µM) | MIC (Staphylococcus aureus [10]): 2 µg/mL (≈ 4.37 µM) | MIC (Staphylococcus aureus [11]): 8 µg/mL (≈ 17.5 µM) | MIC (Escherichia coli): 64 µg/mL (≈ 140 µM) | MIC (Staphylococcus aureus [13]): 2.5 µg/mL (≈ 5.46 µM)

CCOC(=O)c1cn(C2CC2)c2c(C)c(N3CCC4=C(C3)C(=O)CCS4)c(N)cc2c1=O
MIC (Staphylococcus aureus [1]): > 100 µg/mL | Activity [2]: 36.8%

Cc1c(N2CCC3=C(C2)C(=O)C(C)CS3)c(N)cc2c(=O)c(C(=O)O)cn(C3CC3)c12 (stereo not given)
MIC (Staphylococcus aureus [3]): 0.16 µg/mL (≈ 0.364 µM) | MIC (Staphylococcus aureus [4]): 1.25 µg/mL (≈ 2.84 µM) | MIC (Staphylococcus aureus [5]): 1.25 µg/mL (≈ 2.84 µM) | MIC (Staphylococcus aureus [6]): 0.31 µg/mL (≈ 0.705 µM) | MIC (Staphylococcus aureus [7]): > 10 µg/mL | MIC (Staphylococcus aureus [8]): 0.16 µg/mL (≈ 0.364 µM) | MIC (Staphylococcus aureus [9]): > 10 µg/mL | MIC (Staphylococcus aureus [10]): 0.08 µg/mL (≈ 0.182 µM) | MIC (Staphylococcus aureus [11]): 32 µg/mL (≈ 72.8 µM) | MIC (Escherichia coli): 64 µg/mL (≈ 146 µM) | MIC (Staphylococcus aureus [12]): 1.25 µg/mL (≈ 2.84 µM) | MIC (Staphylococcus aureus [13]): 0.16 µg/mL (≈ 0.364 µM)

CO/N=C1\CCSC2=C1CN(c1cc3c(cc1N)c(=O)c(C(=O)O)cn3C1CC1)CC2
MIC (Staphylococcus aureus [3]): 3.13 µg/mL (≈ 7.11 µM) | MIC (Staphylococcus aureus [6]): 12.5 µg/mL (≈ 28.4 µM) | MIC (Staphylococcus aureus [8]): 1.56 µg/mL (≈ 3.54 µM) | MIC (Staphylococcus aureus [10]): 2 µg/mL (≈ 4.54 µM) | MIC (Staphylococcus aureus [11]): 8 µg/mL (≈ 18.2 µM) | MIC (Escherichia coli): 16 µg/mL (≈ 36.3 µM) | MIC (Staphylococcus aureus [13]): 3.13 µg/mL (≈ 7.11 µM)

O=C(O)c1cn(C2CC2)c2cc(N3CCNCC3)c(F)cc2c1=O [CIPROFLOXACIN]
MIC (Staphylococcus aureus [3]): 0.31 µg/mL (≈ 0.936 µM) | MIC (Staphylococcus aureus [4]): 2.5 µg/mL (≈ 7.54 µM) | MIC (Staphylococcus aureus [5]): 2.5 µg/mL (≈ 7.54 µM) | MIC (Staphylococcus aureus [6]): 10 µg/mL (≈ 30.2 µM) | MIC (Staphylococcus aureus [7]): > 10 µg/mL | MIC (Staphylococcus aureus [8]): 0.31 µg/mL (≈ 0.936 µM) | MIC (Staphylococcus aureus [9]): > 10 µg/mL | MIC (Staphylococcus aureus [10]): 0.5 µg/mL (≈ 1.51 µM) | MIC (Staphylococcus aureus [11]): 32 µg/mL (≈ 96.6 µM) | MIC (Escherichia coli): ≤ 0.12 µg/mL | MIC (Staphylococcus aureus [12]): 2.5 µg/mL (≈ 7.54 µM) | MIC (Staphylococcus aureus [13]): 2.5 µg/mL (≈ 7.54 µM)

O=C1CCSC2=C1CN(c1cc3c(cc1F)c(=O)c(C(=O)O)cn3C1CC1)CC2
MIC (Staphylococcus aureus [3]): 1.56 µg/mL (≈ 3.76 µM) | MIC (Staphylococcus aureus [6]): 3.13 µg/mL (≈ 7.55 µM) | MIC (Staphylococcus aureus [8]): 0.31 µg/mL (≈ 0.748 µM) | MIC (Staphylococcus aureus [10]): 0.08 µg/mL (≈ 0.193 µM) | MIC (Staphylococcus aureus [11]): > 128 µg/mL | MIC (Escherichia coli): 8 µg/mL (≈ 19.3 µM) | MIC (Staphylococcus aureus [13]): 0.63 µg/mL (≈ 1.52 µM)
